The record followed here is the supplement of paper PMC10290057.

Molecules are shown by their SMILES. Where a name gives a salt, the structure may show the parent alone.

Assay [1] relates to HCT116. The assay can be described thus: efficacy (fitted maximal change in viability relative to DMSO control); higher = less cytotoxic (negative = loss of viability). The note with it: 48 h.
In assay [2] the test system is HCT116. The assay can be described thus: AC50 cell viability (CellTiter-Glo); higher = less potent. As to conditions: 48 h.
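Wherever AC50 cell viability (CellTiter-Glo) is given: HCT116 colorectal carcinoma cells screened at five concentrations per compound, luminescent viability scaled between DMSO wells and empty wells on each plate, curves fitted per compound.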
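Wherever efficacy (fitted maximal change in viability relative to DMSO control) is given: Luminescence-based viability readout, five doses per compound, normalized against on-plate DMSO and empty-well controls, followed by dose-response curve fitting for every drug.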

As for `Cc1c(C)c2c(c(C)c1O)CCC(C)(COc1ccc(CC3SC(=O)NC3=O)cc1)O2` (stereo unspecified) [Troglitazone], in the assay with HCT116 [1], the efficacy is -55.1%. In the assay on HCT116 [2], this molecule displayed an AC50 cell viability of 18.6 µM.
In the same order, the values of `CN1CCc2c(c3ccccc3n2Cc2ccc(C(=O)NO)cc2)C1` [Tubastatin A] are -93.8% and 10.5 µM.
The like results for `CC1=C(OC2=CC3=NC=N[N]3C=C2)C=CC(=C1)NC4=NC=NC5=C4C=C(N\C6=N\C(C)(C)CO6)C=C5` [Tucatinib] were, in that order, -71.1% and 20.9 µM.
In the case of `C=C1[C@H](OC(=O)/C=C(\C)CC)C[C@@H](C(C)C)[C@@H]2[C@H]([C@@H](C)OC(C)=O)C(=O)C[C@@H]12` [Tussilagone], in the assay on HCT116 [1], the efficacy is -67.9%. Moreover, in the assay with HCT116 [2], the AC50 cell viability amounted to 20.9 µM.
The like results for `CN(C)CCN1C(=O)c2cccc3cc(NC(N)=O)cc(c23)C1=O` [UNBS-5162] were, in that order, -75% and 4.68 µM.
In the case of `CCCCNc1ncc2c(-c3ccc(CN4CCN(C)CC4)cc3)cn([C@H]3CC[C@H](O)CC3)c2n1` [UNC2025 (hydrochloride)], the efficacy with HCT116 [1] was -93.7%. This molecule also displayed an AC50 cell viability with HCT116 [2] of 1.66 µM.
In the case of `CCCCNc1ncc(-c2ccc(CN3CCOCC3)cn2)c(N[C@H]2CC[C@H](O)CC2)n1` [UNC2250], in the assay on HCT116 [1], the efficacy is -51.5%. For the same molecule, the AC50 cell viability in the assay on HCT116 [2] was found to be 3.62 µM.
As to `CCCCNc1ncc2c(-c3ccc(F)cc3)nn(C[C@H]3CC[C@H](N)CC3)c2n1` [UNC-569], the efficacy with HCT116 [1] is -83.5%. Also, in the assay with HCT116 [2], the AC50 cell viability is 7.23 µM.
In the same order, the values of `COc1cc2c(NC3CCN(CC4CCCCC4)CC3)nc(N3CCCN(C(C)C)CC3)nc2cc1OCCCN1CCCCC1` [UNC-0631] are -106% and 7.42 µM.
The like results for `COc1cc2c(NC3CCN(C(C)C)CC3)nc(C3CCCCC3)nc2cc1OCCCN1CCCC1` [UNC-0638] were, in that order, -94.9% and 8.33 µM.
The like results for `COc1cc2c(NC3CCN(C4CCCCC4)CC3)nc(N3CCCN(C(C)C)CC3)nc2cc1OCCCN1CCCCC1` [UNC-0646] were, in that order, -102% and 2.95 µM.
For the molecule `CCCCNc1ncc2c(-c3ccc(CN4CCN(C)CC4)cc3)cn(C3CCC(O)CC3)c2n1` (stereo unspecified) [UNC-2025], in the assay with HCT116 [1], the efficacy is -74.3%. Further, the AC50 cell viability in the assay with HCT116 [2] is 1.66 µM.
The like results for `CC(C)Nc1cc(-c2c[nH]c(C(=O)N[C@H](CO)c3cccc(Cl)c3)c2)c(Cl)cn1` [Ulixertinib] were, in that order, -114% and 1.86 µM.
As to `CC(C)OC1=C(F)C=C(C=C1)C2=N[N]([C@@H](C)C/3=C(C4=CC(=CC=C4)F)/C(=O)C5=CC(=CC=C5O3)F)C6=C2C(=NC=N6)N` [Umbralisib], the efficacy in the assay with HCT116 [1] was -35.3%. The molecule further showed an AC50 cell viability in the assay on HCT116 [2] of 14.8 µM.
The like results for `CC[C@]1(O)C[C@H]2CN(CCC3=C([NH]C4=C3C=CC=C4)[C@@](C2)(C(=O)OC)C5=C(OC)C=C6N(C)[C@H]7[C@](O)([C@H](OC(C)=O)[C@]8(CC)\C=C/CN9CC[C@]7([C@H]89)C6=C5)C(=O)OC)C1` [VINBLASTINE SULFATE] were, in that order, -53.2% and 0.372 µM.
For `C/C(=N\Nc1nnc2c(n1)[nH]c1c(C)cccc12)c1ccccn1` [VLX-600], the efficacy in the assay on HCT116 [1] was -87.1%. Besides, in the assay with HCT116 [2], the AC50 cell viability came out at 0.742 µM.
Consider `C=CC(=O)N1CC/C(=C\c2ccc(F)c([N+](=O)[O-])c2)C(=O)/C(=C/c2ccc(F)c([N+](=O)[O-])c2)C1` [VLX-1570], for which the efficacy in the assay with HCT116 [1] was -81.4%. The same molecule had an AC50 cell viability with HCT116 [2] of 0.295 µM.
Regarding `CC(C)(O)CNc1ncc(-c2ccnc(Nc3ccncc3)n2)c(CC2CC2)n1` [VPS34 Inhibitor 1 (Compound 19, PIK-III analogue)], the efficacy in the assay on HCT116 [1] is -109%. This molecule had an AC50 cell viability in the assay on HCT116 [2] of 13.2 µM.
In the same order, the values of `CCCCC(=O)OCC(=O)[C@]1(O)Cc2c(O)c3c(c(O)c2[C@@H](O[C@H]2C[C@H](NC(=O)C(F)(F)F)[C@H](O)[C@H](C)O2)C1)C(=O)c1c(OC)cccc1C3=O` [Valrubicin] are -88.9% and 1.86 µM.
The like results for `C/C=C/C[C@@H](C)C(=O)[C@H]1C(=O)N[C@@H](C(C)C)C(=O)N(C)CC(=O)N(C)[C@@H](CC(C)C)C(=O)N[C@@H](C(C)C)C(=O)N(C)[C@@H](CC(C)C)C(=O)N[C@@H](C)C(=O)N[C@H](C)C(=O)N(C)[C@@H](CC(C)C)C(=O)N(C)[C@@H](CC(C)C)C(=O)N(C)[C@@H](C(C)C)C(=O)N1C` [Valspodar] were, in that order, -53.6% and 8.11 µM.
In the same order, the values of `COc1cc2c(Nc3ccc(Br)cc3F)ncnc2cc1OCC1CCN(C)CC1` [Vandetanib] are -108% and 14.8 µM.
In the case of `Fc1ccc(C(OCCN2CCN(CCCc3ccccc3)CC2)c2ccc(F)cc2)cc1` [Vanoxeamine], the efficacy in the assay with HCT116 [1] is -96.8%. Also, the AC50 cell viability with HCT116 [2] is 11.8 µM.
The like results for `C[C@@H]\1COC(=N1)\NC2=CC3=C(C=C2)N=CN=C3NC4=CC(=C(OCC5=NC=CS5)C=C4)Cl` [Varlitinib tosylate] were, in that order, -87.5% and 16.6 µM.
